US20150328292A1, “CASPASE POLYPEPTIDES HAVING MODIFIED ACTIVITY AND USES THEREOF” (BELLICUM PHARMACEUTICALS, INC., priority 2014, published 2015)
“And” between values parts separate entries of the source, which are not always exact repeats. Equal values may be shown once. “Also recorded” adds a separate entry of the source. Read-outs that look alike come from different tables or passages of the source.

Experiments:
[1] = molecular target: chimeric caspase-9 polypeptide (Homo sapiens, UniProt P55211+P62942, F37V); assay: AP1903-triggered apoptosis/signaling of cells expressing chimeric caspase-9 polypeptide; type: cell-based
chimeric caspase-9 polypeptide, sequence (P62942 2-108 F37V limits assumed): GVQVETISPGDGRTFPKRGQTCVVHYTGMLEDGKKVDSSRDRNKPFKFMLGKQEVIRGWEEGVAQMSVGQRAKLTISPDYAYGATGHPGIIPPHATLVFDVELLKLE
chimeric caspase-9 polypeptide, sequence (P55211 135-416 limits assumed): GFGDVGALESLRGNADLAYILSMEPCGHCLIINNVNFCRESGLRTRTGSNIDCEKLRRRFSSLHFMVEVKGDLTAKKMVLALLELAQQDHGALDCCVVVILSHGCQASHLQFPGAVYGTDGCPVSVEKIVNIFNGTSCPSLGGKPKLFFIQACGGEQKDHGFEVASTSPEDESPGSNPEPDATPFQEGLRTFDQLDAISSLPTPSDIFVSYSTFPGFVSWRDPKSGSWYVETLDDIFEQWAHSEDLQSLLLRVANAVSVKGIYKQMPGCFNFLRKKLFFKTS

[2] = cited from earlier work; for safety and tolerability: healthy volunteers, 0.01-1.0 mg/kg
CD3+ΔCD19+ cells = assay: CASPALLO phase I clinical trial, AP1903 in patients with GvHD after iCasp9 T cells; type: in vivo, human
human CD3+CD19+ T cells = assay: AP1903 dose-dependent elimination in vivo of transduced T cells in NSG mice; design: species or system mouse; settings: T cells with wild-type iCasp9, i.p., 24 hours
Experimental: T cells were transduced with SFG-iCasp9-2A-ΔCD19 retrovirus and injected i.v. into immune deficient mice (NSG). […] After an additional 24 hours, mice were sacrificed and lymphocytes from the spleen (FIG. 61A) and peripheral blood (FIG. 61B) were isolated and analyzed by flow cytometry for the frequency of human CD3+CD19+ T cells.
T cells were transduced with SFG-iCasp9-D330E-2A-ΔCD19 retrovirus and injected i.v. into immune deficient mice (NSG). […] After an additional 24 hours, mice were sacrificed and lymphocytes from the spleen (A) were isolated and analyzed by flow cytometry for the frequency of human CD3+CD19+ T cells.

[3] = system: iCasp9M-transduced EBV-CTLs; assay: Loss of GFP-expressing iCasp9M-transduced EBV-CTLs after CID (flow cytometry); type: cell-based, human
[4] = system: gene-modified allodepleted cells; assay: Induction of apoptosis with AP20187 in gene-modified allodepleted cells (annexin V/7-AAD); type: cell-based, human
Experimental: Suicide gene functionality was assessed by adding a small molecule synthetic homodimerizer, AP20187 (Ariad Pharmaceuticals; Cambridge, Mass.), at 10 nM final concentration the day following CD19 immunomagnetic selection. Cells were stained with annexin V and 7-aminoactinomycin (7-AAD)(BD Pharmingen) at 24 hours and analyzed by flow cytometry. Cells negative for both annexin V and 7-AAD were considered viable, cells that were annexin V positive were apoptotic, and cells that were both annexin V and 7-AAD positive were necrotic. The percentage killing induced by dimerization was corrected for baseline viability as follows: Percentage killing=100%−(% Viability in AP20187-treated cells÷ % Viability in non-treated cells).
Cells were maintained in T cell medium containing 50 U/ml IL-2 until 22 days after transduction. A portion of cells was reactivated on 24-well plates coated with […] OKT3 and 1 μg/ml anti-CD28 (Clone CD28.2, BD Pharmingen, San Jose, Calif.) for 48 to 72 hours. CD19 expression and suicide gene function in both reactivated and non-reactivated cells were measured on day 24 or 25 post transduction.
In some experiments, cells also were cultured for 3 weeks post transduction and stimulated with 30G-irradiated allogeneic PBMC at a responder:stimulator ratio of 1:1. After 4 days of co-culture, a portion of cells was treated with 10 nM AP20187. Killing was measured by annexin V/7-AAD staining at 24 hours, and the effect of dimerizer on bystander virus-specific T cells was assessed by pentamer analysis on AP20187-treated and untreated cells.

[5] = system: differentiated iCasp9-positive MSCs; assay: Apoptosis of differentiated iCasp9-transduced MSCs after CID (TUNEL, cell density); type: cell-based, human; settings: adipocytic differentiation, 50 nM CID, after 24 hours (from 584)
Experimental: Differentiated MSCs. Transduced MSCs were differentiated as presented above. At the end of the differentiation period, CID was added to the differentiation media at 50 nM. Cells were stained appropriately for the tissue being studied, as presented above, and a contrast stain (methylene azur or methylene blue) was used to evaluate the nuclear and cytoplasmic morphology. In parallel, tissues were processed for terminal deoxynucleotidyl-transferase dUTP nick end labeling (TUNEL) assay as per manufacturer instructions (In Situ Cell Death Detection Kit, Roche Diagnostics, Mannheim, Germany). For each time point, four random fields were photographed at a final magnification of 40× and the images were analyzed with ImageJ software version 1.43o (NIH, Bethesda, Md.). Cell density was calculated as the number of nuclei (DAPI positivity) per unit of surface area (in mm^2). The percentage of apoptotic cells was determined as the ratio of the number of nuclei with positive TUNEL signal (FITC positivity) to the total number of nuclei. Controls were maintained in culture without CID.

iCasp9-transduced MSCs = assay: Apoptosis of undifferentiated iCasp9-transduced MSCs after CID (annexin V/7-AAD FACS); type: cell-based, human
Experimental: Undifferentiated MSCs. The chemical inducer of dimerization (CID) (AP20187; ARIAD Pharmaceuticals, Cambridge, Mass.) was added at 50 nM to iCasp9-transduced MSCs cultures in complete medium. Apoptosis was evaluated 24 hours later by FACS analysis, after cell harvest and staining with annexin V-PE and 7-AAD in annexin V binding buffer (BD Biosciences, San Diego, Calif.). Control iCasp9-transduced MSCs were maintained in culture without exposure to CID.

[6] = system: iCasp9-ΔCD19-transduced MSCs; assay: In vivo killing of iCasp9-transduced MSCs in SCID mice (luminescence, qPCR); design: species or system mouse
[7] = system: iCasp9M.IRES.GFPhigh-transduced CTLs; assay: SCID mouse-human xenograft model, elimination of transduced CTLs by CID; type: in vivo; settings: single dose of CID (50 μg AP20187 i.p.), vs carrier
Experimental: Non-obese diabetic severe combined immunodeficient (NOD/SCID) mice, 6 to 8 weeks of age, were irradiated (250 rad) and injected subcutaneously in the right flank with 10×10^6 to 15×10^6 LCLs resuspended in Matrigel (BD Bioscience). Two weeks later mice bearing tumors that were approximately 0.5 cm in diameter were injected into the tail vein with a 1:1 mixture of nontransduced and iCasp9.I.GFPhigh-transduced EBV CTLs (total 15×10^6). At 4 to 6 hours prior and 3 days after CTL infusion, mice were injected intraperitoneally with recombinant hIL-2 (2000 U; Proleukin; Chiron). On day 4, the mice were randomly segregated in 2 groups: 1 group received CID (50 μg AP20187, intraperitoneally) and 1 group received carrier only (16.7% propanediol, 22.5% PEG400, and 1.25% Tween 80, intraperitoneally). […] By FACS analysis, the number of GFP+ cells within the gated CD3^+ population was evaluated. […]
The function of iCasp9M in vivo is graphically illustrated in FIG. 7. […] On day 3 after CTL administration, mice received either CID (50 μg AP20187; (black diamonds, n=6) or carrier only (black squares, n=5) and on day 6 the presence of human CD3+/GFP+ T cells in the tumors was analyzed. Human CD3+ T cells isolated from the tumors of a control group of mice that received only nontransduced CTLs (15×10^6 CTLs; n=4) were used as a negative control for the analysis of CD3+/GFP+ T cells within the tumors.

[8] = system: F-Casp9M.I.GFPhigh-transduced T cells; assay: annexin-V/7-AAD staining of CID-treated transduced CTLs; type: cell-based, human; settings: GFPhigh-selected, overnight 10 nM CID
Experimental: CID (AP20187; ARIAD Pharmaceuticals) at indicated concentrations was added to transfected 293T cells or transduced CTLs. Adherent and nonadherent cells were harvested and washed with annexin binding buffer (BD Pharmingen, San Jose, Calif.). Cells were stained with annexin-V and 7-amino-actinomycin D (7-AAD) for 15 minutes according to the manufacturer's instructions (BD Pharmingen). Within 1 hour after staining, cells were analyzed by flow cytometry using CellQuest software (Becton Dickinson).

[9] = system: Primary T cells from healthy donors
[10] = 10 nM, 24 hours, day after CD19 selection

Molecule: CC[C@H](C(=O)N1CCCC[C@H]1C(=O)O[C@H](CCc1ccc(OC)c(OC)c1)c1cccc(OCC(=O)NCCNC(=O)COc2cccc([C@@H](CCc3ccc(OC)c(OC)c3)OC(=O)[C@@H]3CCCCN3C(=O)[C@@H](CC)c3cc(OC)c(OC)c(OC)c3)c2)c1)c1cc(OC)c(OC)c(OC)c1 (relative stereo) [AP1903, 2-Piperidinecarboxylic acid, 1-[(2S)-1-oxo-2-(3,4,5-trimethoxyphenyl)butyl]-, 1,2-ethanediylbis[imino(2-oxo-2,1-ethanediyl)oxy-3,1-phenylene[(1R)-3-(3,4-dimethoxyphenyl)propylidene]]ester, [2S-[1(R*),2R*[S*[S*[1(R*),2R*]]]]]-(9Cl)]
- amount of AP1903 needed in vitro for effective signaling of cells [1]: 0.1 to 10 nM
- adverse event considered possibly related ([2]; 1 volunteer at 1.0 mg/kg, facial flushing): vasodilatation
- plasma level, % of maximal concentration ([2]; 2 hours post-dose): ~7%
- plasma level, % of maximal concentration ([2]; 10 hours post-dose): ~1%
- safety and tolerability [2]: proven safe in healthy volunteers; also recorded: safe and well tolerated at all dose levels; also recorded: proven safe at the required dose; also recorded: substantially no significant adverse effects
- safety and tolerability ([2]; listed as API903): No serious adverse events
- time to normalization of bilirubin concentration (CD3+ΔCD19+ cells; patient 1, post-treatment): ≤ 24 h
- time to disappearance of skin rash (CD3+ΔCD19+ cells; patient 2, post treatment): ≤ 24 h
- time to resolution of skin and liver aGvHD (CD3+ΔCD19+ cells; patients with grade I/II aGVHD): ≤ 24 h
- ablation of CD3+ΔCD19+ cells (CD3+ΔCD19+ cells; within 30 minutes of infusion, 0.4 mg/kg): > 90%
- further reduction of CD3+ΔCD19+ cells (CD3+ΔCD19+ cells; within 24 hours): further log reduction
- AP1903 dose sufficient to eliminate most modified T cells in vivo (human CD3+CD19+ T cells): 0.5 mg/kg

Molecule: CC[C@H](C(=O)N1CCCC[C@H]1C(=O)O[C@H](CCc1ccc(OC)c(OC)c1)c1cccc(OCC(=O)NCC(CNC(=O)COc2cccc([C@@H](CCc3ccc(OC)c(OC)c3)OC(=O)[C@@H]3CCCCN3C(=O)[C@@H](CC)c3cc(OC)c(OC)c(OC)c3)c2)CN(C)C)c1)c1cc(OC)c(OC)c(OC)c1 [AP20187]
- CID concentration sufficient to obtain the maximal deletion effect ([3]; F-Casp9M.I.GFPhigh, day 7): 1 nM
- reduction in mean fluorescence intensity of GFP in surviving CTLs ([3]; after CID): 70%
- GFP+ cells eliminated ([3]; unselected CTLs, single 10-nM dose of CID, 5 donors): 91.3%
- Killing efficiency after correction for baseline viability [4, 10]: about 92.9%±3.8%
- viable cells after AP20187 [4, 10]: about 5.5%±2.5%
- killing efficiency ([4]; OKT3/aCD28-reactivated cells, day 24 or 25): ~84.6%±8.0%
- effect on virus-specific T cells (pentamer analysis) ([4]; allostimulated cells, 10 nM AP20187): spares (and thereby enriches) viral reactive subpopulations
- killing efficiency ([4]; day 5 post transduction): 93.1±3.5%
- residual viability ([4]; day 24 post transduction, 10 nM AP20187): 19.6±5.6%
- killing efficiency ([4]; day 24 post transduction, non-reactivated): 63.1±6.2% and ~63.1%±6.2%
- percentage killing ([4]; large scale (n=3)): about 95.4%
- mean viability with AP20187 ([4]; large scale CD19 selection (n=3)): about 3.9%
- viability of non-transduced cells with AP20187 ([4]; non-transduced cells (n=6)): about 86%±9%
- Killing ([4]; reactivated, CD25 negative fraction): 78.6±9.1%
- percentage killing ([4]; small scale (n=5)): about 91.4%
- mean viability with AP20187 ([4]; small scale CD19 selection (n=5)): about 6.6%
- apoptosis / elimination of iCasp9-modified T cells after dimerizer ([4]; summary statement, listed as small-molecule dimerizer): > 90%
- cell density [5]: < 14 cells/mm2
- annexin positive non-transduced control MSC (Control/CID) (iCasp9-transduced MSCs; CID 50 nM, 24 hours): 15%
- apoptosis index of iCasp9-negative cells (iCasp9-transduced MSCs; CID 50 nM, 24 hrs, listed as CID): 20±7% and 19%
- apoptotic death of iCasp9-positive cells (iCasp9-transduced MSCs; CID 50 nM, within 24 hrs): 93±1%
- apoptotic cells among magnetically immunoselected iCasp9-CD19-positive cells (iCasp9-transduced MSCs; after exposure to CID): More than 95%
- proportion of surviving iCasp9-positive cells ([6]; mouse, in vivo): 0.7%
- killing / depletion of iCasp9-positive MSCs in vivo ([6]; two injections of 50 μg of CID 24 hours apart): > 99%
- reduction in the number of human CD3+/GFP+ T cells in tumors ([7]; listed as CID): > 99%
- reduction in the number of human CD3+/GFP+ T cells in tumors ([7]; listed as dimerizer): more than 99%
- apoptotic (annexin-V+/7-AAD−) phenotype [8]: 64%
- necrotic (annexinV+/7-AAD+) phenotype ([8]; listed as CID): 30% and 32%

B1: N405Qco: codon-optimized version of the modified caspase-9 polypeptide having the N405Q substitution, SEQ ID NO: 39/40 (protein)
chain: VDGFGDVGALESLRGNADLAYILSMEPCGHCLIINNVNFCRESGLRTRTGSNIDCEKLRRRFSSLHFMVEVKGDLTAKKMVLALLELARQDHGALDCCVVVILSHGCQASHLQFPGAVYGTDGCPVSVEKIVNIFNGTSCPSLGGKPKLFFIQACGGEQKDHGFEVASTSPEDESPGSNPEPDATPFQEGLRTFDQLDAISSLPTPSDIFVSYSTFPGFVSWRDPKSGSWYVETLDDIFEQWAHSEDLQSLLLRVANAVSVKGIYKQMPGCFQFLRKKLFFKTSASRA
- AP1903-dependent cytotoxicity / sensitivity in transduced T cells [9]: very subtle effect on inducible caspase function
